Measured values reported in patent publication US20100331320A1, “CYCLIC INHIBITORS OF 11BETA-HYDROXYSTEROID DEHYDROGENASE 1” (Vitae Pharmaceuticals, Inc., priority 2009, published 2010).

Legend:
11β-HSD1 = biological target: T1, 11β-HSD1 (Homo sapiens, UniProt P28845); experiment: biochemical; details: read-out: Average % control inhibition at 100 nM
T1 construct: detecting cortisol generated from cortisterone by human liver microsomes
Description: Briefly, compounds were incubated for 1 hour at 37° C. in Tris buffer (20 mM tris, 5 mM EDTA, pH 6.0) containing NADPH (200 μM) and cortisone (80 nM). Cortisol generated in the reaction was then detected with a competitive immunoassay, involving two HTRF conjugates: cortisol linked to XL665 and anti-cortisol antibody labeled with Europium cryptate. The incubation period for detection reaction was typically 2 hours. […] The ratio of the two emission signals was then calculated (Em665*10000/Em615). […] Each assay also contained a calibration curve with cortisol to transform the fluorescent data into cortisol concentrations. Percent inhibition of each compound was determined relative to the carbenoxolone signal.

CYP3A4 = CYP3A4 (Homo sapiens, UniProt P08684); experiment: Biological Test Example 6: CYP3A4 Inhibition ([N-methyl-14C]-Erythromycin N-demethylation); assay type: in vitro ADME; details: recombinant CYP3A4, probe [N-methyl-14C]-Erythromycin (50 μM)
Chain of CYP3A4 (P08684 whole entry): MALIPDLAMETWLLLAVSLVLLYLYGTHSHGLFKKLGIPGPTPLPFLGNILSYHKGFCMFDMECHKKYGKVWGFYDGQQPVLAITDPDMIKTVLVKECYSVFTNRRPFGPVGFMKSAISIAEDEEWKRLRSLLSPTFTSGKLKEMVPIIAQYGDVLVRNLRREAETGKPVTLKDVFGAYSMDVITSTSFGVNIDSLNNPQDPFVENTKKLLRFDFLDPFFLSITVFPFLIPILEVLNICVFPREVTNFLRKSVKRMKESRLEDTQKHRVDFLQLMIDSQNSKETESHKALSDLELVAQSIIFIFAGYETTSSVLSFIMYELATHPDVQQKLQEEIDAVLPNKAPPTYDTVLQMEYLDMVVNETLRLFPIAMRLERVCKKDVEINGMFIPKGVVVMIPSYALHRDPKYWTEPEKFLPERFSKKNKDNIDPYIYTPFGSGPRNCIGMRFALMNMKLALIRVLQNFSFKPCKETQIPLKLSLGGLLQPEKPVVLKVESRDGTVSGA

[1] = Slurry experiment on stability of the crystalline form (water suspension, XRPD); assay type: physicochemical; details: for stability of the anhydrous state: during the measurement by XRPD (30 minutes); for polymorphic change after slurry in water: suspended in water for up to seven days, XRPD of the filtration residue
Description: In this study, a suspension of the monohydrate of Example 48 was suspended in water for up to seven days. After the treatment, the mixtures were filtered and an x-ray powder diffraction of the filtration residue was measured.
In this study, a suspension of the monohydrate of Example 75 was suspended in water for up to seven days. After the treatment, the mixtures were filtered and an x-ray powder diffraction of the filtration residue was measured.

T1 sequence (P28845 whole entry): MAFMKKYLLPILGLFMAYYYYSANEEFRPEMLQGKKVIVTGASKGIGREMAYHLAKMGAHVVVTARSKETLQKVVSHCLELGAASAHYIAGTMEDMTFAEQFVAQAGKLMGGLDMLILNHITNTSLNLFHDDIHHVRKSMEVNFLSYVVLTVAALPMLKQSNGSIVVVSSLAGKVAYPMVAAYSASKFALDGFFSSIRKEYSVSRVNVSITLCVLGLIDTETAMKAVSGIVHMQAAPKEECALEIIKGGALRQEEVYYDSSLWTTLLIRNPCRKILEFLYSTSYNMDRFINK

Row | Structure (SMILES) | percent inhibition at 0.1 µM (11β-HSD1) [%] | further results
1 | C[C@@H](c1ccc(-c2cc(=O)n(C)cc2F)cc1)N1CC[C@](CC(C)(C)O)(c2ccccc2)OC1=O [Example 79, 3-{(S)-1-[4-(5-Fluoro-1-methyl-2-oxo-1,2-dihydro-pyridin-4-yl)-phenyl]-ethyl}-(S)-6-(2-hydroxy-2-methyl-propyl)-6-phenyl-[1,3]oxazinan-2-one] | 15 | –
2 | C[C@@H](c1ccc(-c2ccn(CC(C)(C)O)c(=O)c2)cc1)N1CC[C@](CC(C)(C)O)(c2ccccc2)OC1=O [Example 80, (S)-6-(2-Hydroxy-2-methyl-propyl)-3-((S)-1-{4-[1-(2-hydroxy-2-methyl-propyl)-2-oxo-1,2-dihydro-pyridin-4-yl]-phenyl}-ethyl)-6-phenyl-[1,3]oxazinan-2-one] | 37 | –
3 | COCC(C)Cn1ccc(-c2ccc([C@H](C)N3CC[C@](CC(C)(C)O)(c4ccccc4)OC3=O)cc2)cc1=O (stereo partly drawn) [Example 81, (S)-6-(2-Hydroxy-2-methyl-propyl)-3-((S)-1-{4-[1-(3-methoxy-2-methyl-propyl)-2-oxo-1,2-dihydro-pyridin-4-yl]-phenyl}-ethyl)-6-phenyl-[1,3]oxazinan-2-one] | 11 | –
4 | CC(CO)Cn1ccc(-c2ccc([C@H](C)N3CC[C@](CC(C)(C)O)(c4ccccc4)OC3=O)cc2)cc1=O (stereo partly drawn) [Example 82, (S)-6-(2-Hydroxy-2-methyl-propyl)-3-((S)-1-{4-[1-(3-hydroxy-2-methyl-propyl)-2-oxo-1,2-dihydro-pyridin-4-yl]-phenyl}-ethyl)-6-phenyl-[1,3]oxazinan-2-one] | -12 | –
5 | COC(C)(C)Cn1ccc(-c2ccc([C@H](C)N3CC[C@](CC(C)(C)O)(c4ccccc4)OC3=O)cc2)cc1=O [Example 83, (S)-6-(2-Hydroxy-2-methyl-propyl)-3-(1-{4-[1-(2-methoxy-2-methyl-propyl)-2-oxo-1,2-dihydro-pyridin-4-yl]-phenyl}-ethyl)-6-phenyl-[1,3]oxazinan-2-one] | 54 | IC50 (CYP3A4): > 50 µM
6 | C[C@@H](c1ccc(-c2ccn(CC(C)(C)CO)c(=O)c2)cc1)N1CC[C@](CC(C)(C)O)(c2ccccc2)OC1=O [Example 90, 3-((S)-1-{4-[1-(3-Hydroxy-2,2-dimethyl-propyl)-2-oxo-1,2-dihydro-pyridin-4-yl]-phenyl}-ethyl)-(S)-6-(2-hydroxy-2-methyl-propyl)-6-phenyl-[1,3]oxazinan-2-one] | 4 | –
7 | C[C@@H](c1ccc(-c2ccn(C)c(=O)c2)cc1)N1CC[C@](CC(C)(C)O)(c2ccccc2)OC1=O [anhydrous form of Example 48, (S)-6-(2-hydroxy-2-methylpropyl)-3-((S)-1-(4-(1-methyl-2-oxo-1,2-dihydropyridin-4-yl)phenyl)ethyl)-6-phenyl-1,3-oxazinan-2-one] | – | stability of the anhydrous state [1]: did not remain in the anhydrous state
8 | C[C@@H](c1ccc(-c2ccn(C3CC3)c(=O)c2)cc1)N1CC[C@](CC(C)(C)O)(c2ccccc2)OC1=O [anhydrous form of Example 75, 3-{(S)-1-[4-(1-Cyclopropyl-2-oxo-1,2-dihydro-pyridin-4-yl)-phenyl]-ethyl}-(S)-6-(2-hydroxy-2-methyl-propyl)-6-phenyl-[1,3]oxazinan-2-one] | – | stability of the anhydrous state [1]: did not remain in the anhydrous state
9 | C[C@@H](c1ccc(-c2ccn(C)c(=O)c2)cc1)N1CC[C@](CC(C)(C)O)(c2ccccc2)OC1=O [monohydrate of Example 48, (S)-6-(2-hydroxy-2-methylpropyl)-3-((S)-1-(4-(1-methyl-2-oxo-1,2-dihydropyridin-4-yl)phenyl)ethyl)-6-phenyl-1,3-oxazinan-2-one] | – | polymorphic change after slurry in water [1]: No polymorphic change was observed
10 | C[C@@H](c1ccc(-c2ccn(C3CC3)c(=O)c2)cc1)N1CC[C@](CC(C)(C)O)(c2ccccc2)OC1=O [monohydrate of Example 75, 3-{(S)-1-[4-(1-Cyclopropyl-2-oxo-1,2-dihydro-pyridin-4-yl)-phenyl]-ethyl}-(S)-6-(2-hydroxy-2-methyl-propyl)-6-phenyl-[1,3]oxazinan-2-one] | – | polymorphic change after slurry in water [1]: No polymorphic change was observed
